From patent publication US9951021B2, “Compounds for inhibiting c-Myc/Max/DNA complex formation” (NATIONAL CANCER CENTER, priority 2016, dated 2018)

Legend:
[1] = system: UM-UC-3; assay: Selectivity evaluation, cytotoxicity in UM-UC-3; type: cell-based; conditions: Homo sapiens, UMUC3; UM-UC-3 (malignant), 72 hours, ATP detection
Description: (§1) Commercially available bladder cancer cell lines were treated with trypsin-EDTA and seeded in each well of a 96 well plate, followed by incubation for 24 hours. After incubation, candidate compounds were added to each well at a final concentration of 0 to 2 μM. The compound-treated cells were further incubated for 72 hours. Cell viability was measured using an ATP detection method (CellTiter-Glo® Luminescent Cell Viability Assay, Promega).
(§2) The selectivity of the compounds of the present disclosure to cancer cells was evaluated in the same manner as described in “2. Cell based assay”.
UM-UC-3: human urinary bladder transitional cell carcinoma

[2] = system: 253J; assay: Selectivity evaluation, cytotoxicity in 253J; type: cell-based; conditions: Homo sapiens; 253J (malignant), 72 hours, ATP detection
Description: as §1, §2
253J: human urinary tract transitional cell carcinoma

[3] = system: Mouse; assay: IV and IP single toxicity test; type: in vivo; conditions: for Percentage (deaths), single toxicity evaluation: Mouse
[4] = biological target: T1, recombinant c-Myc/Max (Homo sapiens, UniProt P01106+P61244); assay: Electrophoretic mobility shift assay (EMSA): inhibitory activity on DNA binding of recombinant c-Myc/Max; conditions: read-out: protein assay IC50
T1 construct: made in house
T1 sequence (P01106 whole entry): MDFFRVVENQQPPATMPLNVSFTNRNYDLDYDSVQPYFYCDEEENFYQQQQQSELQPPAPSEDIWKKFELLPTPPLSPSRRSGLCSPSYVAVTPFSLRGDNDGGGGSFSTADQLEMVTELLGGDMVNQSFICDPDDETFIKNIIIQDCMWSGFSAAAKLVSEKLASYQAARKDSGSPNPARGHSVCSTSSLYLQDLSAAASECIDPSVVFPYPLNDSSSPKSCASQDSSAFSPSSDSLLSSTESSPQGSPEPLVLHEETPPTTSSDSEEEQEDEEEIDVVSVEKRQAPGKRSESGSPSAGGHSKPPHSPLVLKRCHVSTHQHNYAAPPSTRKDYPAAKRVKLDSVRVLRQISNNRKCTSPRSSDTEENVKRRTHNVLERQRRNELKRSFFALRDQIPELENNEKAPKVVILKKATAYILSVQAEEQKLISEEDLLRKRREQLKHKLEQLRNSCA
T1 sequence (P61244 whole entry): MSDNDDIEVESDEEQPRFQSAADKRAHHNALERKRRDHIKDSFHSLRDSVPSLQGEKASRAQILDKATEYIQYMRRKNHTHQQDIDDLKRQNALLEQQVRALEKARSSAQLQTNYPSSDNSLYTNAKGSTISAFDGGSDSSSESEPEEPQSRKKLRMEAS
Outline: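 Protein mixture preincubated 5 min at room temperature, compound in DMSO added for 5 min, then biotinylated annealed E-box DNA for 10 min to equilibrium. Complexes resolved on 8% polyacrylamide in 1×TBE (120 V, 1 h), detected with HRP-streptavidin/ECL; protein-DNA complex ratio from band intensity.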

| SMILES | IC50 [1] | IC50 [2] | IC50 [4] | other results |
| --- | --- | --- | --- | --- |
| CC(=O)c1c([S+]([O-])Cc2ccccc2)nc2c(Br)ccc(Cl)c2c1O (stereo not shown) [Compound 4, 3-acetyl-2-(benzylsulfinyl)-8-bromo-5-chloroquinolin-4(1H)-one] | 1500 nM | 1100 nM |  | deaths ([3]; IV and IP single-dose administration, 40 mpk, 40 mg/kg): No deaths were observed; Percentage (deaths), single toxicity evaluation ([3]; Female, IP 40 mg/kg): 0 (0/2) %; Percentage (deaths), single toxicity evaluation ([3]; Female, IV 40 mg/kg): 0 (0/2) %; Percentage (deaths), single toxicity evaluation ([3]; Male, IP 40 mg/kg): 0 (0/2) % |
| CC(=O)c1c([S+]([O-])Cc2ccc([N+](=O)[O-])cc2)[nH]c2c(Br)ccc(Cl)c2c1=O (stereo not shown) [Compound 33, 3-acetyl-8-bromo-5-chloro-2-((4-nitrobenzyl)sulfinyl)quinolin-4(1H)-one] | 1600 nM | 1600 nM | < 1000 nM |  |
| CC(=O)c1c([S+]([O-])Cc2ccc(Cl)nc2)[nH]c2c(Br)ccc(Cl)c2c1=O (stereo not shown) [Compound 104, 3-acetyl-8-bromo-5-chloro-2-(((6-chloropyridin-3-yl)methyl)sulfinyl)quinolin-4(1H)-one] |  |  | < 1000 nM |  |
| COCCNc1ccc(C[S+]([O-])c2[nH]c3c(Br)ccc(Cl)c3c(=O)c2C(C)=O)cn1 (stereo not shown) [Compound 105, 3-acetyl-8-bromo-5-chloro-2-(((6-((2-methoxyethyl)amino)pyridin-3-yl)methyl)sulfinyl)quinolin-4(1H)-one] |  |  | < 1000 nM |  |
| CC(=O)c1c([S+]([O-])Cc2nonc2C)[nH]c2c(Br)ccc(Cl)c2c1=O (stereo not shown) [Compound 106, 3-acetyl-8-bromo-5-chloro-2-(((4-methyl-1,2,5-oxadiazol-3-yl)methyl)sulfinyl)quinolin-4(1H)-one] |  |  | < 1000 nM |  |
| CC(=O)c1c([S+]([O-])Cc2cnc3[nH]ccc3c2)[nH]c2c(Br)ccc(Cl)c2c1=O (stereo not shown) [Compound 107, 2-(((1H-pyrrolo[2,3-b]pyridin-5-yl)methyl)sulfinyl)-3-acetyl-8-bromo-5-chloroquinolin-4(1H)-one] |  |  | < 1000 nM |  |
